Source: the NIST ThermoML archive (doi:10.1016/j.jct.2006.09.012)
“And” between values parts separate entries of the source, which are not always exact repeats. Equal entries are not always repeated.

Settings: Gas, Buoyancy - hydrostatic balance with magnetic suspension - two sinkers

[He] [helium]
Settings | mass density
223.15 K, 1881.4 kPa | 4.0102 kg/m3 and 4.0101 kg/m3
223.15 K, 1881.5 kPa | 4.0102 kg/m3
223.15 K, 3970 kPa | 8.3499 kg/m3
223.15 K, 3970.1 kPa | 8.3501 kg/m3 and 8.3499 kg/m3 and 8.35 kg/m3
223.15 K, 3970.2 kPa | 8.3499 kg/m3
223.15 K, 8133.1 kPa | 16.67 kg/m3 and 16.6699 kg/m3 and 16.6701 kg/m3
223.15 K, 8133.2 kPa | 16.6699 kg/m3 and 16.6701 kg/m3
223.15 K, 11880 kPa | 23.8087 kg/m3 [middle of 5 runs]
223.15 K, 15827 kPa | 30.9985 kg/m3
223.15 K, 15828 kPa | 30.9993 kg/m3 [middle of 4 runs]
223.15 K, 19642 kPa | 37.6507 kg/m3 [middle of 4 runs]
223.15 K, 26024 kPa | 48.1863 kg/m3 and 48.1868 kg/m3
223.15 K, 26025 kPa | 48.1881 kg/m3 and 48.1886 kg/m3 and 48.1887 kg/m3
223.15 K, 32014 kPa | 57.4666 kg/m3
223.15 K, 32015 kPa | 57.4668 kg/m3 and 57.4679 kg/m3
223.15 K, 32016 kPa | 57.4684 kg/m3
223.15 K, 32017 kPa | 57.4698 kg/m3
223.15 K, 38281 kPa | 66.6119 kg/m3
223.15 K, 38282 kPa | 66.6131 kg/m3 and 66.6126 kg/m3
223.15 K, 38283 kPa | 66.614 kg/m3
223.15 K, 38284 kPa | 66.616 kg/m3
253.15 K, 1929.2 kPa | 3.629 kg/m3 and 3.6292 kg/m3
253.15 K, 1929.3 kPa | 3.629 kg/m3 and 3.6294 kg/m3 and 3.6292 kg/m3
253.15 K, 3784.6 kPa | 7.046 kg/m3 and 7.0462 kg/m3 and 7.0461 kg/m3
253.15 K, 7472.2 kPa | 13.634 kg/m3
253.15 K, 7472.3 kPa | 13.634 kg/m3
253.15 K, 11895 kPa | 21.202 kg/m3 and 21.2018 kg/m3
253.15 K, 11896 kPa | 21.2023 kg/m3 and 21.2022 kg/m3 and 21.2019 kg/m3
253.15 K, 15957 kPa | 27.8548 kg/m3
253.15 K, 15958 kPa | 27.8555 kg/m3 [middle of 4 runs]
253.15 K, 19865 kPa | 34.0064 kg/m3 and 34.007 kg/m3
253.15 K, 19866 kPa | 34.0081 kg/m3 and 34.0112 kg/m3
253.15 K, 25976 kPa | 43.1785 kg/m3
253.15 K, 25977 kPa | 43.179 kg/m3 and 43.1796 kg/m3
253.15 K, 25978 kPa | 43.181 kg/m3 and 43.1801 kg/m3
253.15 K, 31938 kPa | 51.6436 kg/m3 and 51.6443 kg/m3
253.15 K, 31940 kPa | 51.647 kg/m3 and 51.6462 kg/m3 and 51.6454 kg/m3
253.15 K, 37813 kPa | 59.5651 kg/m3
253.15 K, 37814 kPa | 59.5664 kg/m3
253.15 K, 37815 kPa | 59.5673 kg/m3
253.15 K, 37816 kPa | 59.5686 kg/m3
253.15 K, 37817 kPa | 59.5703 kg/m3
273.16 K, 935.8 kPa | 1.6415 kg/m3
273.16 K, 935.9 kPa | 1.6416 kg/m3 and 1.6415 kg/m3
273.16 K, 1881.8 kPa | 3.2839 kg/m3
273.16 K, 1927.3 kPa | 3.363 kg/m3 and 3.3629 kg/m3
273.16 K, 1927.4 kPa | 3.3629 kg/m3 and 3.363 kg/m3
273.16 K, 1956.4 kPa | 3.4135 kg/m3
273.16 K, 1956.5 kPa | 3.4135 kg/m3 and 3.4134 kg/m3
273.16 K, 3626.6 kPa | 6.273 kg/m3 and 6.2731 kg/m3
273.16 K, 3626.7 kPa | 6.2732 kg/m3
273.16 K, 3626.8 kPa | 6.2735 kg/m3
273.16 K, 3926.1 kPa | 6.7802 kg/m3
273.16 K, 3926.2 kPa | 6.7804 kg/m3 and 6.7802 kg/m3 and 6.7803 kg/m3
273.16 K, 3952.8 kPa | 6.8257 kg/m3
273.16 K, 3952.9 kPa | 6.8257 kg/m3
273.16 K, 3975.1 kPa | 6.8634 kg/m3
273.16 K, 3975.2 kPa | 6.8633 kg/m3 and 6.8635 kg/m3
273.16 K, 7764.9 kPa | 13.1534 kg/m3
273.16 K, 7765.3 kPa | 13.1538 kg/m3
273.16 K, 7765.7 kPa | 13.1545 kg/m3
273.16 K, 7766.1 kPa | 13.1555 kg/m3
273.16 K, 7766.6 kPa | 13.1563 kg/m3
273.16 K, 7916 kPa | 13.399 kg/m3
273.16 K, 7916.1 kPa | 13.3992 kg/m3 and 13.399 kg/m3 and 13.3991 kg/m3
273.16 K, 7973.3 kPa | 13.4919 kg/m3
273.16 K, 7973.4 kPa | 13.4923 kg/m3 and 13.4922 kg/m3 and 13.4921 kg/m3
273.16 K, 8006.1 kPa | 13.5452 kg/m3
273.16 K, 8006.2 kPa | 13.5452 kg/m3
273.16 K, 11783 kPa | 19.5712 kg/m3 [middle of 5 runs]
273.16 K, 11830 kPa | 19.6435 kg/m3 [middle of 5 runs]
273.16 K, 11855 kPa | 19.6832 kg/m3 [middle of 5 runs]
273.16 K, 12056 kPa | 19.9988 kg/m3 [middle of 5 runs]
273.16 K, 15586 kPa | 25.4233 kg/m3 and 25.4234 kg/m3
273.16 K, 15587 kPa | 25.4235 kg/m3 and 25.4232 kg/m3
273.16 K, 15980 kPa | 26.017 kg/m3 [middle of 5 runs]
273.16 K, 16077 kPa | 26.1628 kg/m3 and 26.1631 kg/m3
273.16 K, 16078 kPa | 26.164 kg/m3 and 26.1636 kg/m3 and 26.1633 kg/m3
273.16 K, 16090 kPa | 26.1822 kg/m3 [middle of 5 runs]
273.16 K, 19645 kPa | 31.445 kg/m3 [middle of 4 runs]
273.16 K, 19708 kPa | 31.5381 kg/m3 and 31.5379 kg/m3
273.16 K, 19709 kPa | 31.5382 kg/m3 and 31.5385 kg/m3 and 31.5386 kg/m3
273.16 K, 19869 kPa | 31.7712 kg/m3 and 31.7709 kg/m3
273.16 K, 19870 kPa | 31.7727 kg/m3 and 31.7718 kg/m3 and 31.7722 kg/m3
273.16 K, 20242 kPa | 32.3124 kg/m3 [middle of 4 runs]
273.16 K, 20243 kPa | 32.314 kg/m3
273.16 K, 25434 kPa | 39.6666 kg/m3 and 39.6662 kg/m3 and 39.6672 kg/m3
273.16 K, 25435 kPa | 39.6682 kg/m3 and 39.6678 kg/m3
273.16 K, 25464 kPa | 39.7083 kg/m3
273.16 K, 25465 kPa | 39.7092 kg/m3
273.16 K, 25466 kPa | 39.7107 kg/m3 and 39.7113 kg/m3 and 39.7099 kg/m3
273.16 K, 25915 kPa | 40.3302 kg/m3 and 40.3307 kg/m3 and 40.3313 kg/m3
273.16 K, 25916 kPa | 40.3324 kg/m3 and 40.3317 kg/m3
273.16 K, 25964 kPa | 40.3998 kg/m3
273.16 K, 25965 kPa | 40.4011 kg/m3 and 40.4013 kg/m3
273.16 K, 25966 kPa | 40.402 kg/m3
273.16 K, 31576 kPa | 47.9567 kg/m3
